The text below walks through data of patent publication US11090351B2, “Whitening agent” (KAO CORPORATION, priority 2016, dated 2021).

Like-named read-outs stand apart in the source and are kept apart here.

The test system of data set [1] is B16 melanoma cells. As to the kind of experiment: Cytotoxicity test (MTT assay), relative cell survival rate. The format is cell-based. As to the method: (§1) B16 melanoma cells (DS pharma Biomedical) were used as skin melanocytes. The B16 melanoma cells were cultured in a CO2 incubator (37° C., 5% CO2) in 10 cm dishes containing the DMEM medium supplemented with 10% FBS. A cell suspension at 5.0×10^4 cells/mL was prepared from the cultured cells. 998 μL aliquots of the cell suspension were dispensed into 24 well plates and cultured in a CO2 incubator (37° C., 5% CO2) overnight. Subsequently, 2 μL of the DMSO solution of the methanol extract from Syzygium polyanthum prepared in Production Example 3 was added to each well (the final concentrations of the extract: 25 and 50 μg/mL) and the mixtures were further cultured for 72 hours. Arbutin (730 μM) was used instead of the extract as a positive control. DMSO was used as control.
The MTT assay solution was prepared by dissolving 50 mg of Thiazolyl Blue Tetrazolium Bromide (SIGMA) in 10 mL of PBS (−). 50 μL of the MTT assay solution was added to each culture prepared in (1) and reacted for 4 hours. Then, 1 mL of isopropanol for MTT was added to each culture and the plate was covered with aluminum foil and allowed for reaction at room temperature for 2 hours for the reaction. After the reaction, the total amount was collected and centrifuged (1.45×10^3 rpm, 1 min), then 150 μL each of the supernatants was transferred into a 96 well plate, and the absorbance was measured at 590 nm. The relative cell survival rate (cytotoxicity) was calculated by determining the relative value to the control.
(§2) The assay for tyrosinase activity was conducted in a procedure similar to that in Example 1 (3) using Compounds 1-3 as samples. In the tyrosinase activity assay, the final concentrations of each compound were adjusted to 100, 50, 25, and 12.5 mM and IC50 was calculated. Moreover, tests for melanogenesis inhibiting activity and for cytotoxicity were conducted in procedures similar to those in Example 2. The relative amount of extracellular melanin and the relative cell survival rate of skin melanocytes to which Compounds 1-3 were added were measured. The result of the tyrosinase activity assay is illustrated in Table 5 and the results of the measurements of the relative amount of extracellular melanin and the relative cell survival rate are illustrated in Table 6.
On the technique in general: Formazan colour is commonly taken as a measure of viable cells.

Data set [2] has as its system B16 melanoma cells. As to the kind of experiment: Inhibition of melanogenesis in skin melanocytes (relative amount of extracellular melanin). The conditions noted are these: Mus musculus. It counts as cell-based. On the procedure:
as §1
The supernatants of the cultures prepared in (1) were collected, 200 μL each was transferred into a 96 well plate, and then the absorbance was measured at 510 nm. The relative amount of extracellular melanin was calculated by determining the relative value to the control.
as §2

Another data set concerns the target mushroom tyrosinase. As to the kind of experiment: Tyrosinase activity assay (methanol extract, fractions, Compounds 1-3). The format is biochemical. The conditions noted are these: Table 5. As to the method: 1 mg of methanol extract from Syzygium polyanthum prepared in Production Example 3 was dissolved in 50 μL of DMSO and 550 μL of a buffer (50 mM solution of disodium hydrogen phosphate, pH 6.5). This extract solution was transferred in a 96 well plate so that the final concentrations of extract became 500, 250, 125, 62.5, 31.25, 15.625, 7.8125 and 0 μg/mL and diluted to 60 μL with the buffer. 30 μL of the tyrosinase solution (a buffered solution of 1 mg/16 mL mushroom tyrosinase (SIGMA), pH 6.5) and 110 μL of the substrate solution (2 mM L-tyrosine or 12 mM L-DOPA) were added to each well of the 96 well plate.
Each fraction was dissolved in 600 μL of DMSO and added to 96-well plates to the final concentrations of 50, 25 and 12.5 μg/mL.
In the tyrosinase activity assay, the final concentrations of each compound were adjusted to 100, 50, 25, and 12.5 mM and IC50 was calculated. […] The result of the tyrosinase activity assay is illustrated in Table 5 and the results of the measurements of the relative amount of extracellular melanin and the relative cell survival rate are illustrated in Table 6.

[3] abbreviates: substrate L-DOPA, read-out: IC50 (μM) DOPA.
Setting [4] is: substrate L-tyrosine, read-out: IC50 (μM) Tyrosine.

As to `OC[C@H]1O[C@@H](Oc2ccc(O)cc2)[C@H](O)[C@@H](O)[C@@H]1O` [Arbutin, reference compound], the “Cell Viability (%)” value with B16 melanoma cells [1] (730 μM, 72 hours, MTT, relative to control, Table 3) came out at 99%; in the data set on B16 melanoma cells [1] (730 μM, Table 6), 107.6%. In addition, the activity at 730 µM in the data set with B16 melanoma cells [2] (72 hours, relative to DMSO control, Table 3) came to 21.3%; with B16 melanoma cells [2] (Table 6), 32.7%.
What is called IC50 is the concentration that gives 50% inhibition. As to `CCCCCC(=O)c1cc(O)c(C)c(O)c1O` [Compound 1, 1-(2,3,5-Trihydroxy-4-methylphenyl)hexane-1-one], the entries for the “Cell Viability (%)” value in the data set on B16 melanoma cells [1] (100 μM) and in the data set with B16 melanoma cells [1] (200 μM) were 73.3% and 64.9%, respectively. Besides, the activity at 100 µM in the data set with B16 melanoma cells [2] was 78.2%. For the same compound, in the data set on B16 melanoma cells [2] (200 μM), the activity at 200 µM came to 13.6%. Further, the IC50 on mushroom tyrosinase (setting [3]) was found to be 291 µM; on mushroom tyrosinase (setting [4]), 125 µM.
`CCCCCCCC(=O)c1cc(O)c(C)c(O)c1O` [Compound 2, 1-(2,3,5-Trihydroxy-4-methylphenyl)octane-1-one]: the “Cell Viability (%)” value is on record as 95.0% with B16 melanoma cells [1] (25 μM) and 87.4% in the data set with B16 melanoma cells [1] (50 μM). Besides, the activity at 25 µM in the data set on B16 melanoma cells [2] was determined as 99%. Moreover, the activity at 50 µM in the data set with B16 melanoma cells [2] came to 13.5%. Besides, the IC50 at mushroom tyrosinase (setting [3]) was 616 µM; on mushroom tyrosinase (setting [4]), 481 µM.
For `CCCCC/C=C/CCC(=O)c1cc(O)c(C)c(O)c1O` [Compound 3, (4E)-1-(2,3,5-Trihydroxy-4-methylphenyl)dec-4-en-1-one], the “Cell Viability (%)” value in the data set on B16 melanoma cells [1] (25 μM) came out at 94.3%; in the data set on B16 melanoma cells [1] (50 μM) it was 99.8%; with B16 melanoma cells [1] (75 μM) it was 92.5%; in the data set with B16 melanoma cells [1] (100 μM) it was 72.9%. Further, the activity at 25 µM in the data set with B16 melanoma cells [2] was found to be 107%. For the same compound, in the data set on B16 melanoma cells [2], the activity at 50 µM turned out to be 27.2%. Besides, in the data set with B16 melanoma cells [2] (75 μM), the activity at 75 µM was 9.7%. In addition, the activity at 100 µM in the data set on B16 melanoma cells [2] amounted to 11.4%. Besides, the IC50 on mushroom tyrosinase (setting [3]) was 489 µM; at mushroom tyrosinase (setting [4]), 84 µM.
